Experimental data as given in patent US20030124132A1 (University of Texas, published 2003).

How the values were obtained:
L540 tumor blood vessels = test: Thrombosis of L540 tumor vessels by anti-VCAM-1·tTF coaguligand; type: in vivo, mice; details: equivalent quantities
Source text: Before coaguligand injection, tumors were viable, having a uniform morphology lacking regions of necrosis. […] Within four hours of coaguligand injection, 40-70% of blood vessels were thrombosed. despite the initial staining of only 20-30% of tumor blood vessels. The thrombosed vessels contained occlusive platelet aggregates, packed erythrocytes and fibrin. In several regions, the blood vessels had ruptured, spilling erythrocytes into the tumor interstitium.

F9 sarcoma tumors = test: Tumor tissue necrosis in F9 sarcoma mouse model; type: in vivo, balb/c nude mice; details: endotoxin-free tTF 4 μg; diluent 40-50% spontaneous necrosis
Description: 1×10^7 F9 sarcoma cells were injected subcutaneously into the right flank of balb/c nude mice. Subcutanous tumors were measured with a caliper in three perpendicular directions a, b, and c, and volumes calculated according to the formula V=π/6×a'b×c. Treatment was initiated when subcutaneous tumors reached a size of 150 to 300 μl.
Reagents were administered into the lateral tail vein.
Mice were closely observed after treatment for clinical signs of toxicity and clinical status was documented at defined time points. Three days after treatment, mice were sacrificed and tumors were harvested. Paraffin embedded tissues were stained with hematoxilin and eosin (H&E). Tissue sections were analyzed on a light microscope by two independent investigators and histological findings were documented. Tumor sections with necrotic areas were scanned with a GS-700 imaging densitometer (Biorad, Hercules, Calif.) and areas of necrosis were calculated as % of total section area.

tTF: extracellular domain of the mature Tissue Factor protein (amino acid 1-219), recombinant; depyrogenated in Example X
control reagents causing thrombosis (L540 tumor blood vessels): None | average tumor tissue necrosis (F9 sarcoma tumors): 45%
